Reference: US9890152B2 (Genentech, Inc., priority 2012, dated 2018)
Structures can show the parent of a compound that is named as a salt.

Biological target: T1, EGFR del746-750 T790M (Homo sapiens, UniProt P00533, DEL746-750/T790M)
T1 construct: purchased Carna Biosciences 08-528
Test: EGFR del746-750 T790M biochemical assay (Caliper mobility shift)
Settings: 5 μM ATP, 30 min, room temperature; apparent Ki (Morrison) converted by Cheng-Prusoff, Km of ATP 2.1 μM; read-out: EGFR(T790M/d746-750) Ki

T1 sequence (P00533 with tags, fused parts or gaps DEL746-750/T790M limits assumed): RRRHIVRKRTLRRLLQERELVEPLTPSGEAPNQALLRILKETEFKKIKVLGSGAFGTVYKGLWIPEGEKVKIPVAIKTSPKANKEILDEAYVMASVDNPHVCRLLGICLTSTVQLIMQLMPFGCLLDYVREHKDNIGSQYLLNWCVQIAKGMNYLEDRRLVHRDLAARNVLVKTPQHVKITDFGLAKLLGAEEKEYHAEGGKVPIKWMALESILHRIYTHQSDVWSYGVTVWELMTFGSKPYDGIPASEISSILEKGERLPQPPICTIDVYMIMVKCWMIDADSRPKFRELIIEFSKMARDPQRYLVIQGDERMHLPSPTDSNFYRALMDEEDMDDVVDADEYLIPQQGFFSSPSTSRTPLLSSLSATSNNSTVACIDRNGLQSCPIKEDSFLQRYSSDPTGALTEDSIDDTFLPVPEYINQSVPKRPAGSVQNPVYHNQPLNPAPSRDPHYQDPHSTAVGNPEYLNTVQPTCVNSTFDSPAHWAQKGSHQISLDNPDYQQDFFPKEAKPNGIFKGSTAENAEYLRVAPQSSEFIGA

Compound | Ki [nM]
COc1nc2cnc(Nc3ccnc(N4CCC(OC)CC4)n3)cc2n1C(C)C [Example 11, (1-Isopropyl-2-methoxy-1H-imidazo[4,5-c]pyridin-6-yl)-[2-(4-methoxypiperidin-1-yl)pyrimidin-4-yl]amine] | 98.4
CC(C)n1cnc2cnc(Nc3ccnc(N4CCc5[nH]ncc5C4)n3)cc21 [Example 12, (1-Isopropyl-1H-imidazo[4,5-c]pyridin-6-yl)-[2-(1,4,6,7-tetrahydropyrazolo[4,3-c]pyridin-5-yl)pyrimidin-4-yl]amine] | 19.2
Cc1nc2cnc(Nc3ccnc(N4CCc5[nH]ncc5C4)n3)cc2n1C(C)C [Example 46, N-(2-(6,7-Dihydro-1H-pyrazolo[4,3-c]pyridin-5(4H)-yl)pyrimidin-4-yl)-1-isopropyl-2-methyl-1H-imidazo[4,5-c]pyridin-6-amine] | 8.2
COC1CCN(c2nccc(Nc3cc4c(cn3)c(C(=O)NCCn3ccnc3)cn4C(C)C)n2)CC1 [Example 63, N-(2-(1H-Imidazol-1-yl)ethyl)-1-isopropyl-6-(2-(4-methoxypiperidin-1-yl)pyrimidin-4-ylamino)-1H-pyrrolo[3,2-c]pyridine-3-carboxamide] | 10.1
CC(C)n1cnc2cnc(Nc3ccnc(N4CCCC(C(N)=O)C4)n3)cc21 (centres unmarked) [Example 66, 1-(4-(1-isopropyl-1H-imidazo[4,5-c]pyridin-6-ylamino)pyrimidin-2-yl)piperidine-3-carboxamide] | 138
CC(C)n1cnc2cnc(Nc3ccnc(NCC(C)(C)C(N)=O)n3)cc21 [Example 85, 3-(4-(1-isopropyl-1H-imidazo[4,5-c]pyridin-6-ylamino)pyrimidin-2-ylamino)-2,2-dimethylpropanamide] | 20.8
Cc1nc2cnc(Nc3ccnc(N4Cc5cn[nH]c5C(C)(C)C4)n3)cc2n1C(C)C [Example 111, N-(2-(7,7-dimethyl-6,7-dihydro-1H-pyrazolo[4,3-c]pyridin-5(4H)-yl)pyrimidin-4-yl)-1-isopropyl-2-methyl-1H-imidazo[4,5-c]pyridin-6-amine] | 18.9
COC1CCN(c2nccc(Nc3cc4c(cn3)c(C(=O)NC(C)C)cn4C(C)C)n2)CC1 [Example 120, N,1-diisopropyl-6-((2-(4-methoxypiperidin-1-yl)pyrimidin-4-yl)amino)-1H-pyrrolo[3,2-c]pyridine-3-carboxamide] | 10.2
COC1CCN(c2nccc(Nc3cc4c(cn3)c(C(=O)NCCO)cn4C(C)C)n2)CC1 [Example 121, N-(2-hydroxyethyl)-1-isopropyl-6-((2-(4-methoxypiperidin-1-yl)pyrimidin-4-yl)amino)-1H-pyrrolo[3,2-c]pyridine-3-carboxamide] | 24.4
CCN1CCN(C(=O)c2cn(C(C)C)c3cc(Nc4ccnc(N5CCC(OC)CC5)n4)ncc23)CC1 [Example 122, (4-ethylpiperazin-1-yl)(1-isopropyl-6-((2-(4-methoxypiperidin-1-yl)pyrimidin-4-yl)amino)-1H-pyrrolo[3,2-c]pyridin-3-yl)methanone] | 100
CC(C)n1cnc2cnc(Nc3ccnc(N4CCC5(CCCO5)CC4)n3)cc21 [Example 141, (1-Isopropyl-1H-imidazo[4,5-c]pyridin-6-yl)-[2-(1-oxa-8-azaspiro[4.5]dec-8-yl)pyrimidin-4-yl]amine formate salt] | 55.5
COC1CCN(c2nccc(Nc3cc4c(cn3)nc(C)n4C(C)(C)C)n2)CC1 [Example 163, (1-tert-butyl-2-methyl-1H-imidazo[4,5-c]pyridin-6-yl)-[2-(4-methoxypiperidin-1-yl)pyrimidin-4-yl]amine] | 14.9
CC(C)n1cnc2cnc(Nc3ccnc(N4CC5CC4CC5F)n3)cc21 (centres unmarked) [Example 191] | 54.7
COC1CCN(c2nccc(Nc3cc4c(cn3)nc(C)n4C(C)C3CC3)n2)CC1 (centres unmarked) [Example 268, [1-(1-Cyclopropylethyl)-2-methyl-1H-imidazo[4,5-c]pyridin-6-yl]-[2-(4-methoxypiperidin-1-yl)pyrimidin-4-yl]amine] | 6.88
CO[C@H]1[C@@H]2CC[C@H]1CN(c1nccc(Nc3cc4c(cn3)nc(CO)n4C(C)C)n1)C2 [Example 273, (1-Isopropyl-6-((2-((1R,5R,8r)-8-methoxy-3-azabicyclo[3.2.1]octan-3-yl)pyrimidin-4-yl)amino)-1H-imidazo[4,5-c]pyridin-2-yl)methanol] | 23.7
COCc1nc2cnc(Nc3ccnc(-c4cnn(S(=O)(=O)C5CC5)c4)n3)cc2n1C(C)C [Example 279, [2-(1-Cyclopropanesulfonyl-1H-pyrazol-4-yl)-pyrimidin-4-yl]-(1-isopropyl-2-methoxymethyl-1H-imidazo[4,5-c]pyridin-6-yl)amine] | 6.87
Cc1nc2cnc(Nc3ccnc(-n4cnc(S(C)(=O)=O)c4)n3)cc2n1C(C)C [Example 337, 1-Isopropyl-2-methyl-N-(2-(4-(methylsulfonyl)-1H-imidazol-1-yl)pyrimidin-4-yl)-1H-imidazo[4,5-c]pyridin-6-amine] | 524

Now those with a lower Ki, led by results:

Ki [nM] | Compound
1.2 | COC1CCN(c2nccc(Nc3cc4c(cn3)c(-c3cc[nH]n3)cn4C(C)C)n2)CC1 [Example 64]
3.5 | Cc1nc2cnc(Nc3ccnc(-c4cnn(S(C)(=O)=O)c4)n3)cc2n1C(C)C [Example 91, 1-isopropyl-2-methyl-N-(2-(1-(methylsulfonyl)-1H-pyrazol-4-yl)pyrimidin-4-yl)-1H-imidazo[4,5-c]pyridin-6-amine]
1.9 | CC(C)n1cnc2cnc(Nc3ccnc(-c4cnn(S(=O)(=O)C5CC5)c4)n3)cc21 [Example 97, N-(2-(1-(cyclopropylsulfonyl)-1H-pyrazol-4-yl)pyrimidin-4-yl)-1-isopropyl-1H-imidazo[4,5-c]pyridin-6-amine]
2.1 | COC1CCN(c2nccc(Nc3cc4c(cn3)c(C(=O)NC3CCN(C)CC3)cn4C(C)C)n2)CC1 [Example 114, 1-isopropyl-6-((2-(4-methoxypiperidin-1-yl)pyrimidin-4-yl)amino)-N-(1-methylpiperidin-4-yl)-1H-pyrrolo[3,2-c]pyridine-3-carboxamide]
1.82 | Cc1cn(CCO)nc1-c1cn(C(C)C)c2cc(Nc3ccnc(-c4cnn(S(=O)(=O)C5CC5)c4)n3)ncc12 [Example 253, 2-(3-(6-(2-(1-(Cyclopropylsulfonyl)-1H-pyrazol-4-yl)pyrimidin-4-ylamino)-1-isopropyl-1H-pyrrolo[3,2-c]pyridin-3-yl)-4-methyl-1H-pyrazol-1-yl)ethanol]
4.25 | Cc1nc2cnc(Nc3ccnc(-c4cnn(S(=O)(=O)C5CCNC5)c4)n3)cc2n1C(C)C (centres unmarked) [Example 258, 1-Isopropyl-2-methyl-N-(2-(1-(pyrrolidin-3-ylsulfonyl)-1H-pyrazol-4-yl)pyrimidin-4-yl)-1H-imidazo[4,5-c]pyridin-6-amine]
5.63 | CCCC(C)n1c(CO)nc2cnc(Nc3ccnc(-c4cnn(S(=O)(=O)C5CC5)c4)n3)cc21 (centres unmarked) [Example 265, (6-(2-(1-(Cyclopropylsulfonyl)-1H-pyrazol-4-yl)pyrimidin-4-ylamino)-1-(pentan-2-yl)-1H-imidazo[4,5-c]pyridin-2-yl)methanol]
2.12 | CC(C)n1c(CO)nc2cnc(Nc3ccnc(-c4cnn(S(=O)(=O)C5CC5)c4)n3)cc21 [Example 272, {6-[2-(1-Cyclopropanesulfonyl-1H-pyrazol-4-yl)pyrimidin-4-ylamino]-1-isopropyl-1H-imidazo[4,5-c]pyridin-2-yl}methanol]
2.37 | CC[C@@H](C)n1c([C@@H](C)O)nc2cnc(Nc3ccnc(-c4cnn(S(=O)(=O)CC)c4)n3)cc21 [Example 281, (R)-1-{1-((R)-sec-Butyl)-6-[2-(1-ethanesulfonyl-1H-pyrazol-4-yl)-pyrimidin-4-ylamino]-1H-imidazo[4,5-c]pyridin-2-yl}ethanol]
4 | CO[C@H]1CCN(c2nccc(Nc3cc4c(cn3)nc([C@@H](C)O)n4[C@@H](C)C(F)(F)F)n2)C[C@H]1F [Example 288, (R)-1-[6-[2-((3R,4S)-3-Fluoro-4-methoxypiperidin-1-yl)-pyrimidin-4-ylamino]-1-((S)-2,2,2-trifluoro-1-methylethyl)-1H-imidazo[4,5-c]pyridin-2-yl]ethanol]
3.35 | C[C@H](n1c([C@@H](C)O)nc2cnc(Nc3ccnc(N4CC[C@H](O)[C@H](F)C4)n3)cc21)C(F)(F)F [Example 289, (3R,4S)-3-Fluoro-1-{4-[2-((R)-1-hydroxyethyl)-1-((S)-2,2,2-trifluoro-1-methylethyl)-1H-imidazo[4,5-c]pyridin-6-ylamino]pyrimidin-2-yl}-piperidin-4-ol]
4.65 | CO[C@@H]1CCN(c2nccc(Nc3cc4c(cn3)nc([C@@H](C)O)n4[C@@H](C)C(F)(F)F)n2)C[C@@H]1F [Example 290, (R)-1-[6-[2-((3S,4R)-3-Fluoro-4-methoxypiperidin-1-yl)-pyrimidin-4-ylamino]-1-((S)-2,2,2-trifluoro-1-methylethyl)-1H-imidazo[4,5-c]pyridin-2-yl]ethanol]
3.59 | C[C@H](n1c([C@@H](C)O)nc2cnc(Nc3ccnc(N4CC[C@@H](O)[C@@H](F)C4)n3)cc21)C(F)(F)F [Example 291, (3S,4R)-3-Fluoro-1-{4-[2-((R)-1-hydroxyethyl)-1-((S)-2,2,2-trifluoro-1-methylethyl)-1H-imidazo[4,5-c]pyridin-6-ylamino]pyrimidin-2-yl}-piperidin-4-ol]
2.97 | Cc1nc2cnc(Nc3ccnc(-c4cnc(N(C)C)s4)n3)cc2n1C(C)C [Example 317, [2-(2-Dimethylaminothiazol-5-yl)pyrimidin-4-yl]-(1-isopropyl-2-methyl-1H-imidazo[4,5-c]pyridin-6-yl)amine]
2.83 | CC(C)n1cc(-c2cnn(CC(N)=O)c2)c2cnc(Nc3ccnc(-c4cnn(S(=O)(=O)C5CC5)c4)n3)cc21 [Example 331, 2-(4-(6-((2-(1-(Cyclopropylsulfonyl)-1H-pyrazol-4-yl)pyrimidin-4-yl)amino)-1-isopropyl-1H-pyrrolo[3,2-c]pyridin-3-yl)-1H-pyrazol-1-yl)acetamide]
